Results on three compounds are retold here after ChEMBL document CHEMBL1629565, “Relationships among ciprofloxacin, gatifloxacin, levofloxacin, and norfloxacin MICs for fluoroquinolone-resistant Escherichia coli clinical isolates” (2009).

Each structure is given as a SMILES string. In brackets after ≈: the same amount, converted by molar mass. Several values for one entry are separate records, joined by “and”; a condition that tells them apart may be missing. Equal entries are not always repeated.

What all share (type): functional
For test [1], the system named is Escherichia coli. Put plainly: Antimicrobial activity against Escherichia coli ATCC 25922 by agar dilution method. (In general: In agar dilution, organisms are placed on agar that contains the substance at set levels.)
For test [2], the system named is Escherichia coli. Nature of the test: Antimicrobial activity against fluoroquinolone-resistant Escherichia coli clinical isolate by agar dilution method.
Test [3] concerns Escherichia coli. Put plainly: Antimicrobial activity against fluoroquinolone-resistant Escherichia coli clinical isolate by Etest.
The subject of test [4] is Escherichia coli. Nature of the test: Antimicrobial activity against fluoroquinolone-sensitive Escherichia coli clinical isolate by Etest.

One may read the MIC as the lowest concentration found to suppress growth. As to `COc1c(N2CCNC(C)C2)c(F)cc2c(=O)c(C(=O)O)cn(C3CC3)c12` (stereo unspecified) [GATIFLOXACIN], the minimal inhibitory concentration (MIC) came to 0.004 µg/mL (≈ 0.0107 µM) in test [1], 23 µg/mL (≈ 61.3 µM) in test [2] and 8 µg/mL (≈ 21.3 µM) in test [3].
`C[C@H]1COc2c(N3CCN(C)CC3)c(F)cc3c(=O)c(C(=O)O)cn1c23.C[C@H]1COc2c(N3CCN(C)CC3)c(F)cc3c(=O)c(C(=O)O)cn1c23.O` [LEVOFLOXACIN]: the MIC in test [4] worked out at 0.023 µg/mL; in test [4] (Escherichia coli, read-out: MIC), 0.042 µg/mL; in test [2], 39 µg/mL; in test [3] it was 8 µg/mL.
For `CCn1cc(C(=O)O)c(=O)c2cc(F)c(N3CCNCC3)cc21` [NORFLOXACIN], the MIC in test [1] was 0.03 µg/mL (≈ 0.0939 µM); in test [4], 0.06 µg/mL and 0.02 µg/mL; in test [2] it was 232 µg/mL (≈ 727 µM); in test [3] it was 16 µg/mL (≈ 50.1 µM).
